Experimental findings from patent EP2168965A1, “Substituted imidazopyridine, imidazopyrazine, imidazopyridazine and imidazopyrimidine derivatives as melanocortin-4 receptor antagonists” (Santhera Pharmaceuticals (Schweiz) AG, priority 2008, dated 2010) are described below.

The target of assay [1] is T1, hMC-4R (Homo sapiens, UniProt P32245).
T1 construct: expressed in transfected cells; host or cells: HEK293 cells (membrane preparations)
The experiment in a line: Membrane binding assay: competition with fluorescence labeled NDP-alpha-MSH, fluorescence polarization. How it is done:
A membrane binding assay is used to identify competitive inhibitors of fluorescence labeled NDP-alpha-MSH binding to HEK293 cell membrane preparations expressing human melanocortin receptors.
The test compound or unlabeled NDP-alpha-MSH is dispensed at varying concentrations to a 384 well microtiter plate. Fluorescence labeled NDP-alpha-MSH is dispensed at a single concentration, followed by addition of membrane preparations. The plate is incubated for 5 h at room temperature.
The degree of fluorescence polarization is determined with a fluorescence polarization microplate reader.
A general note: Fluorescence polarisation rises when a labelled molecule tumbles more slowly, as on binding a larger partner.

Assay [2] deals with T1, hMC-4R. The assay can be described thus: Functional assay: membrane based cAMP fluorescence polarization assay for agonistic activity. It counts as biochemical. The settings on record: read-out: % activation functional assay.
Where [3] appears, read: HEK293 cell membrane preparations expressing human melanocortin receptors, 5 h at room temperature, read-out: hMC-4R binding assay IC50.

Each structure is given as a SMILES string. Read-outs that look alike come from different tables or passages of the source. Some results are limits rather than exact numbers.

T1 sequence (P32245 whole entry): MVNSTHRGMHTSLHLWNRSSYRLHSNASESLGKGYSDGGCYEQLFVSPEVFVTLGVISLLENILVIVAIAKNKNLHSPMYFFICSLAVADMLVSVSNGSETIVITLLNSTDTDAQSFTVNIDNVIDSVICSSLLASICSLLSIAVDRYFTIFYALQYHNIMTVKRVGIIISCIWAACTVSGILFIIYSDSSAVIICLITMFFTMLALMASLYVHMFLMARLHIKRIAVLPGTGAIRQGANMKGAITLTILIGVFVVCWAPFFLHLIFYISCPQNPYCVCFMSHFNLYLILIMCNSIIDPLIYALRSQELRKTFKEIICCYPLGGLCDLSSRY

What is called IC50 is the concentration that gives 50% inhibition. On to `CC(C)CCN(CCC(C)C)C(=O)c1ccc2nc(C3=CCN(C(=O)OC(C)(C)C)CC3)c(C#CCN3CCCC3)n2c1` [Example 16], for which, on hMC-4R [1] (setting [3]), the 50% inhibitory concentration (IC50) was greater than 1 µM. Moreover, at hMC-4R [2], the Emax is -11%.

As to `CC(C)CCN(CCC(C)C)C(=O)c1ccc2nc(-c3cn[nH]c3)c(C#CCN3CCCC3)n2c1` [Example 17], the IC50 on hMC-4R [1] (setting [3]) was less than 0.1 µM. Besides, the Emax at hMC-4R [2] was -6%.

`CC(C)CCN(CCC(C)C)C(=O)c1ccc2nc(C#Cc3ccccc3)c(C#CCN3CCCC3)n2c1` [Example 4]: the half-inhibitory concentration (IC50) on hMC-4R [1] (setting [3]) lay within 0.1 to 1 µM. For the same compound, on hMC-4R [2], the Emax was 5%.

Take `CC(C)CCN(CCC(C)C)C(=O)c1ccc2nc(-c3cnc4c(c3)OCCN4C)c(C#CCN3CCCC3)n2c1` [Example 29]: the IC50 at hMC-4R [1] (setting [3]) is less than 0.1 µM. For the same compound, the Emax on hMC-4R [2] was -5%.

In the case of `Cc1n[nH]cc1-c1nc2ccc(C(=O)N(CCC(C)C)CCC(C)C)cn2c1C#CCN1CCCC1` [Example 30], the IC50 at hMC-4R [1] (setting [3]) lay in the range of 0.1 to 1 µM. Besides, the Emax at hMC-4R [2] was 4%.

Turning to `COc1ncc(-c2nc3ccc(C(=O)N(CCC(C)C)CCC(C)C)cn3c2C#CCN2CCCC2)cn1` [Example 34], the 50% inhibitory concentration (IC50) at hMC-4R [1] (setting [3]) was less than 0.1 µM.

`CC(C)CCN(CCC(C)C)C(=O)c1ccc2nc(Nc3ncccn3)c(C#CCN3CCCC3)n2c1` [Example 9]: the IC50 on hMC-4R [1] (setting [3]) fell in the range of 0.1 to 1 µM. In addition, the Emax on hMC-4R [2] is -12%.

For `COc1cc(Nc2nc3ccc(C(=O)N(CCC(C)C)CCC(C)C)cn3c2C#CCN2CCCC2)ccn1` [Example 19], the IC50 at hMC-4R [1] (setting [3]) is less than 0.1 µM. The Emax on hMC-4R [2] was -13%.

As to `COc1ccc(Nc2nc3ccc(C(=O)N(CCC(C)C)CCC(C)C)cn3c2C#CCN2CCCC2)cn1` [Example 20], the IC50 at hMC-4R [1] (setting [3]) was less than 0.1 µM. In addition, at hMC-4R [2], the Emax was -16%.

For `COc1cccc(Nc2nc3ccc(C(=O)N(CCC(C)C)CCC(C)C)cn3c2C#CCN2CCCC2)c1` [Example 12], the IC50 at hMC-4R [1] (setting [3]) was less than 0.1 µM. Further, on hMC-4R [2], the Emax is -3%.

With `CC(C)CCN(CCC(C)C)C(=O)c1ccc2nc(-c3ccoc3)c(C#CCN3CCCC3)n2c1` [Example 7], the IC50 on hMC-4R [1] (setting [3]) lay in the range of 0.1 to 1 µM. Further, the Emax on hMC-4R [2] came to 3%.

Regarding `CC(C)CCN(CCC(C)C)C(=O)c1ccc2nc(Nc3ccccn3)c(C#CCN3CCCC3)n2c1` [Example 11], the concentration for half-maximal inhibition (IC50) at hMC-4R [1] (setting [3]) is less than 0.1 µM. On hMC-4R [2], the Emax is -7%.

As to `COc1cccc(-c2nc3ccc(C(=O)N(CCC(C)C)CCC(C)C)cn3c2C#CCN2CCCC2)n1` [Example 32], at hMC-4R [1] (setting [3]), the concentration for half-maximal inhibition (IC50) was in the range of 0.1 to 1 µM. The Emax at hMC-4R [2] was -4%.

On to `CC(C)CCN(CCC(C)C)C(=O)c1ccc2nc(-c3c[nH]nc3C(F)(F)F)c(C#CCN3CCCC3)n2c1` [Example 36], for which the IC50 on hMC-4R [1] (setting [3]) lay in the range of 0.1 to 1 µM.

Consider `COc1cc(F)cc(-c2nc3ccc(C(=O)N(CCC(C)C)CCC(C)C)cn3c2C#CCN2CCCC2)c1` [Example 25], for which, on hMC-4R [1] (setting [3]), the half-maximal inhibitory concentration (IC50) was greater than 1 µM. Further, the Emax on hMC-4R [2] is -2%.

For `CC(C)CCN(CCC(C)C)C(=O)c1ccc2nc(N(C)c3ccccn3)c(C#CCN3CCCC3)n2c1` [Example 13], the IC50 at hMC-4R [1] (setting [3]) fell in the range of 0.1 to 1 µM. In addition, the Emax on hMC-4R [2] is -4%.

For `Cc1cc(-c2nc3ccc(C(=O)N(CCC(C)C)CCC(C)C)cn3c2C#CCN2CCCC2)n(C)n1` [Example 31], the IC50 at hMC-4R [1] (setting [3]) was 0.1 to 1 µM. Further, the Emax at hMC-4R [2] is 3%.

As for `CC(C)CCN(CCC(C)C)C(=O)c1ccc2nc(-c3ccco3)c(C#CCN3CCCC3)n2c1` [Example 8], the IC50 on hMC-4R [1] (setting [3]) lay within 0.1 to 1 µM. For the same compound, at hMC-4R [2], the Emax came to 5%.

For `COc1cccc(N(C)c2nc3ccc(C(=O)N(CCC(C)C)CCC(C)C)cn3c2C#CCN2CCCC2)c1` [Example 14], the IC50 at hMC-4R [1] (setting [3]) is 0.1 to 1 µM. Moreover, the Emax at hMC-4R [2] amounted to 0%.

Take `CC(C)CCN(CCC(C)C)C(=O)c1ccc2nc(-c3cnco3)c(C#CCN3CCCC3)n2c1` [Example 5]: the IC50 at hMC-4R [1] (setting [3]) was less than 0.1 µM. The Emax at hMC-4R [2] amounted to 0%.

On to `CC(C)CCN(CCC(C)C)C(=O)c1ccc2nc(-c3ccccc3)c(C#CCN3CCCC3)n2c1` [Example 3], for which the IC50 at hMC-4R [1] (setting [3]) was greater than 1 µM. Also, on hMC-4R [2], the Emax stood at 0%.

With `COc1cc(Nc2nc3ccc(C(=O)N(CCC(C)C)CCC(C)C)cn3c2C#CCN2CCCC2)ccc1F` [Example 18], the 50% inhibitory concentration (IC50) at hMC-4R [1] (setting [3]) was less than 0.1 µM. Besides, the Emax at hMC-4R [2] is -5%.

On to `CC(C)CCN(CCC(C)C)C(=O)c1ccc2nc(C#N)c(C#CCN3CCCC3)n2c1` [Example 6], for which the IC50 on hMC-4R [1] is greater than 1 µM. Besides, at hMC-4R [2], the Emax is 6%.

For `CC(C)CCN(CCC(C)C)C(=O)c1ccc2nc(-c3ccc(F)c(F)c3)c(C#CCN3CCCC3)n2c1` [Example 22], the IC50 on hMC-4R [1] (setting [3]) lay within 0.1 to 1 µM. On hMC-4R [2], the Emax worked out at 0%.

With `COc1ccc(Nc2nc3ccc(C(=O)N(CCC(C)C)CCC(C)C)cn3c2C#CCN2CCCC2)cc1F` [Example 28], the half-inhibitory concentration (IC50) at hMC-4R [1] (setting [3]) is less than 0.1 µM. In addition, the Emax on hMC-4R [2] is -12%.

As for `CC(C)CCN(CCC(C)C)C(=O)c1ccc2nc(-c3ccc(=O)n(C)c3)c(C#CCN3CCCC3)n2c1` [Example 33], the IC50 at hMC-4R [1] (setting [3]) is less than 0.1 µM.

Consider `CC(C)CCN(CCC(C)C)C(=O)c1ccc2ncc(C#CCN3CCCC3)n2c1` [Example 2], for which, on hMC-4R [1] (setting [3]), the half-maximal inhibitory concentration (IC50) fell in the range of 0.1 to 1 µM. For the same compound, at hMC-4R [2], the Emax was 0%.

As for `CC(C)CCN(CCC(C)C)C(=O)c1ccc2nc(-c3cc(F)cc(F)c3)c(C#CCN3CCCC3)n2c1` [Example 27], on hMC-4R [1] (setting [3]), the IC50 is greater than 1 µM. Further, the Emax on hMC-4R [2] was -3%.

On to `COc1ncc(-c2nc3ccc(C(=O)N(CCC(C)C)CCC(C)C)cn3c2C#CCN2CCCC2)cc1F` [Example 23], for which, at hMC-4R [1] (setting [3]), the concentration for half-maximal inhibition (IC50) lay in the range of 0.1 to 1 µM. For the same compound, the Emax at hMC-4R [2] was -9%.

On to `CC(C)CCN(CCC(C)C)C(=O)c1ccc2nc(-c3cnn(CC4OCCO4)c3)c(C#CCN3CCCC3)n2c1` [Example 15], for which the IC50 on hMC-4R [1] (setting [3]) was less than 0.1 µM. The Emax at hMC-4R [2] is -4%.

With `CC(C)CCN(CCC(C)C)C(=O)c1ccc2nc(-c3ccc(C#N)c(F)c3)c(C#CCN3CCCC3)n2c1` [Example 26], the IC50 at hMC-4R [1] (setting [3]) was 0.1 to 1 µM. For the same compound, at hMC-4R [2], the Emax was -4%.

In turn, `CCOC(=O)c1nc2ccc(C(=O)N(CCC(C)C)CCC(C)C)cn2c1C#CCN1CCCC1` [Example 1] gave a concentration for half-maximal inhibition (IC50) on hMC-4R [1] of 0.1 to 1 µM. Further, on hMC-4R [2], the Emax turned out to be 0%.

For `CC(C)CCN(CCC(C)C)C(=O)c1ccc2nc(-c3ccc4nccnc4c3)c(C#CCN3CCCC3)n2c1` [Example 35], the IC50 at hMC-4R [1] (setting [3]) was less than 0.1 µM.

On to `CC(C)CCN(CCC(C)C)C(=O)c1ccc2nc(N3CCOCC3)c(C#CCN3CCCC3)n2c1` [Example 10], for which the concentration for half-maximal inhibition (IC50) on hMC-4R [1] (setting [3]) is 0.1 to 1 µM. At hMC-4R [2], the Emax was determined as 0%.

Take `COc1cc(-c2nc3ccc(C(=O)N(CCC(C)C)CCC(C)C)cn3c2C#CCN2CCCC2)ccc1F` [Example 24]: the 50% inhibitory concentration (IC50) at hMC-4R [1] (setting [3]) was in the range of 0.1 to 1 µM. Also, the Emax on hMC-4R [2] was -2%.

As for `CC(C)CCN(CCC(C)C)C(=O)c1ccc2nc(-c3ccc4nccn4c3)c(C#CCN3CCCC3)n2c1` [Example 21], the IC50 at hMC-4R [1] (setting [3]) was less than 0.1 µM. Besides, the Emax at hMC-4R [2] was -12%.
